The record followed here is patent US12161653B2, “Treatment of submental fat” (Allergan Sales, LLC, priority 2011, dated 2024).

For series [1], the system named is submental fat. Nature of the series: Earlier clinical studies of SDI for submental fat (SMFRS, SSRS). The series is classed as in vivo, human. Here is the method:
(§1) A total of 274 subjects participated in 6 Phase ½ clinical studies that were conducted with SDI. Of these, 3 studies (n=179) evaluated SDI for the treatment of submental fat (SMF). Two studies evaluated SDI for the treatment of superficial lipoma. One study (SDI-08-10) evaluated the histological effects of SDI in subcutaneous abdominal tissue in subjects scheduled to undergo abdominoplasty.
The SMF scale used to assess efficacy in clinical studies with SDI has been validated and shown to be reliable. […] The expected improvement from treatment with SDI is consistent with what patients who desire aesthetic changes would find satisfactory.

Series [2] deals with caudal lateral fat pads. As to the kind of experiment: Fat pad necrosis in Zucker rats after a single injection. Type of series: in vivo. The conditions noted are these: for effectiveness: Zucker rats and clinical studies. Here is the method:
In the rats study, 8 rats received a single injection into the caudal lateral fat pads of 2.5 mL deoxycholic acid at 1%, 0.5%, 0.25%, or 0.1% concentrations, or 2.5 mL vehicle (0.9% benzyl alcohol in water).

The nature of series [3]: Pharmacokinetics of SDI in clinical studies (plasma deoxycholate). Type of series: in vivo. The conditions noted are these: human. Here is the method: (§2) The most commonly observed adverse events associated with the treatment area include pain, erythema, induration, swelling, bruising, and numbness. Less frequently, pruritus and paresthesia have been reported. […] The pharmacokinetics of SDI is linear, illustrating the predictable overall exposure. Plasma concentrations were transient with peak concentrations observed at approximately 15 to 30 minutes, returning to endogenous deoxycholate levels within 24 hours after dosing.

The nature of series [4]: In vitro micelle formation. Type of series: physicochemical. The source says:
When secreted into the small intestine, bile acids form micelles with dietary fats to aid in lipolysis and lipid absorption.

The subject of series [5] is submental fat (SMF). Nature of the series: Example 3 phase II placebo-controlled study (CR-SMFRS, PR-SMFRS, PR-SMFIS, MRI, other scales). Type of series: in vivo, human. The conditions noted are these: for number of patients having at least 1-point improvement (CR-SMFRS) vs placebo group: week 16, 24 and 32. As for the experimental part:
A clinical study was conducted to evaluate the effectiveness of various doses of sodium deoxycholate in removing undesired submental fat (SMF) deposits. This clinical study was multicenter, randomized, double-blind, placebo-controlled study of sodium deoxycholate injection (“SDI” or alternatively “ATX-101”) versus placebo for the reduction of localized subcutaneous fat in the submental area (SMF) using magnetic resonance imaging (MRI) and a battery of clinician- and subject-reported measurements.
Study Design: FIG. 2 depicts the study Design and Treatment Schema associated with this procedure. This was a multicenter, randomized, double-blind, placebo-controlled study in which approximately 120 subjects received either up to 50 mg SDI, up to 100 mg SDI, or placebo in a 1:1:1 ratio (5 mg/mL:10 mg/mL:placebo) as indicated below, to evaluate the safety and efficacy of fixed concentrations of SDI given in up to 50 0.2-mL injections in up to 6 treatment sessions. No subject received more than 10 mL in any treatment session, nor did any subject undergo more than 6 treatment sessions. The initial 30 subjects were enrolled in a 2:2:1 ratio (i.e., 12, 12 and 6 subjects per group, for the two SDI groups and placebo, respectively) and the remaining subjects were randomized to balance the enrollment (approximately 28, 28, and […] per group for the two SDI groups and placebo, respectively).
To measure changes in SMF volume and thickness, MRI acquisitions were repeated prior to each treatment session and post-treatment (4 and 12 weeks after the last treatment cycle). Before subjects completed each MRI visit, the MRI images were evaluated for acceptability.
Subjects who successfully completed screening and baseline evaluations received up to 50 injections (0.2 mL each for a maximum volume of 10 mL) per treatment session, depending upon size and configuration of the SMF. Treatment was given at 4-week (±5 days) intervals. Study material injection sites were positioned using a 1.0 cm grid, which is designed to achieve an appropriate distribution of injections across the submental area.
Study Material, Dose, and Route of Administration: SDI (sodium deoxycholate injection) was provided in a concentration of 5 mg/mL (0.5%) and 10 mg/mL (1.0%) in 10 mM sodium phosphate, 0.9% (weight per volume [w/v]) sodium chloride, and 0.9% (w/v) benzyl alcohol in water for injection (WFI). Each vial (for single use only) contained at least 2.0 mL of accessible material, accessed by means of sterile syringe and needle through a rubber stopper closure.
Evaluation of Efficacy: The effects of 5 mg/mL SDI and 10 mg/mL SDI transcutaneous injections in the submental area were evaluated relative to placebo by measuring the following: (1) the reduction of fat using Clinician-Reported Submental Fat Rating Scale (CR-SMFRS), Patient-Reported Submental Fat Rating Scale (PR-SMFRS), and Patient-Reported Submental Fat Impact Scale (PR-SMFIS); (2) the volume of SMF using MRI; and (3) the thickness of SMF using MM. The efficacy evaluation criteria included: Clinician-Reported Submental Fat Rating Scale (CR-SMFRS), Patient-Reported Submental Fat Rating Scale (PR-SMFRS), Patient-Reported Submental Fat Impact Scale (PR-SMFIS) scores, and Magnetic resonance imaging (MM).
Other Evaluations: The effects of 5 mg/mL SDI and 10 mg/mL SDI transcutaneous injections in the submental area, relative to placebo, for changes in skin laxity (SLRS), Subject Self Rating Scale (SSRS), and subject-reported outcome measures (Self-Ratings of Attractiveness, Derriford Appearance Scale [DAS], Body Image Quality of Life Inventory [BIQLI]), other Subject-Reported Questions, and Post-treatment Questions) were evaluated. Measurements of the thickness of fat in the submental area were made using calipers. Photographs were taken to document treatment effects. […]

A short description of series [6]: Phase 1/2 clinical studies with SDI: safety. The series is classed as in vivo, human. Here is the method:
as §1, §2

The subject of series [7] is submental fat (SMF) deposits. As to the kind of experiment: Example 2 placebo-controlled clinical study, SMF rating scale. Type of series: in vivo, human. The conditions noted are these: for change from baseline at week 16 compared to placebo in SMF rating scale score: significance (ANCOVA): every 4 weeks, up to 4 treatments. Here is the method: A clinical study was conducted to evaluate the effectiveness of various doses of sodium deoxycholate in removing undesired submental fat (SMF) deposits. A multicenter, randomized, double-blind, placebo-controlled, parallel-group comparison of 3 concentrations of sodium deoxycholate (0.5, 1.0, and 2.0 percent w/v) in sterile water with 0.9% benzyl alcohol and placebo was conducted to determine the efficacy of reduction in SMF deposits. Placebo injection consisted of sterile water with 0.9% benzyl alcohol.
All subjects were to have up to 4 treatment sessions at intervals of no less than 4 weeks (±3 days) between treatments.
Eligible subjects were concurrently randomized into one of the following groups: • Placebo injected every 4 weeks for up to 4 treatments • 0.5% w/v sodium deoxycholate injected every 4 weeks for up to 4 treatments • 1.0% w/v sodium deoxycholate injected every 4 weeks for up to 4 treatments • 2.0% w/v sodium deoxycholate injected every 4 weeks for up to 4 treatments
85 subjects were randomized: 21 subjects to the 0.5% w/v sodium deoxycholate group, 20 subjects to the 1.0% w/v sodium deoxycholate group; 22 subjects to the 2.0% w/v sodium deoxycholate (DCA) group; and 22 subjects to the placebo group. 73 subjects completed the study.
Subject selection included males or non-pregnant, non-lactating females aged 25 to 65 years, inclusive, on the date of randomization, with SMF that was considered undesirable by the subject and graded by the investigator as 2 or 3 using the SMF rating scale, and a history of maintenance of a stable body weight, in the judgment of the investigator, for at least 6 months before randomization.

Series [8] concerns subcutaneous abdominal tissue. Nature of the series: Clinical trial: histological changes, efficacy and safety by concentration. The series is classed as in vivo, human. Here is the method: These findings are consistent with the increased intensity of adverse effects at the higher concentrations and larger volumes administered (0.4 mL/injection) in clinical trials. […] Concentrations at or below 0.25% were not tested, as they are at or below the concentration necessary to form micelles. The formation of micelles is essential for lipolytic activity.
as §1

For `C[C@H](CCC(=O)[O-])[C@H]1CC[C@H]2[C@@H]3CC[C@@H]4C[C@H](O)CC[C@]4(C)[C@H]3C[C@H](O)[C@]12C.[Na+]` [sodium deoxycholate], in series [1] (0.5% [0.2 mL/1.0 cm]), the SSRS scores entry is on record as “significantly better than placebo” and the “change in SMFRS score at Week 16” value is “significantly better than placebo”. Further, in series [1] (1.0% [0.2 mL/1.0 cm]), the SSRS scores result is “significantly better than placebo” and the “change in SMFRS score at Week 16” value was “significantly better than placebo”. Moreover, in series [2] (0.5% w/v), the effectiveness entry is listed as “effective”. For the same compound, in series [2] (1.0% w/v), the effectiveness entry is on record as “effective”. Besides, the “effect compared with vehicle” value in series [2] (doses at and below 0.25%) is given as “no different than vehicle”. Besides, in series [3], the “pharmacokinetics (linearity)” value is listed as “linear”, the “time of peak plasma concentrations” value lay in the range of 15 to 30 min and the “time to return to endogenous deoxycholate levels after dosing” value was no more than 24 h. Also, the “minimal concentration at which micelle formation was observed” value in series [4] worked out at 0.25 % w/v. For the same compound, in series [5] (0.5%), the “CR-SMFRS change from baseline (FIG. 4)” value is recorded as “marked reduction of submental fat as compared with placebo”; the “SMF thickness and volume by MRI” value is reported as “statistically significant reduction”; the “SSRS, patient impact scores, patient impact questionnaire, improvement in appearance of the chin and satisfaction” value is “statistically significant changes”; the “number of patients having at least 1-point improvement (CR-SMFRS) vs placebo group” value is reported as “greater”. Also, in series [5] (1.0%), the “CR-SMFRS change from baseline (FIG. 4)” value is on record as “marked reduction of submental fat as compared with placebo”; the “SMF thickness and volume by MRI” value is listed as “statistically significant reduction”; the “SSRS, patient impact scores, patient impact questionnaire, improvement in appearance of the chin and satisfaction” value is reported as “statistically significant changes”; the “statistical significance of CR-SMFRS reduction vs placebo” value is given as “statistically significant at most time points”. Also, in series [5] (1.0%), the “number of patients having at least 1-point improvement (CR-SMFRS) vs placebo group” value was “greater”. In series [5] (1.0% and 0.5%), the “dose response by CR-SMFRS” value is “good dose response” and the “dose response by PR-SMFRS” value is given as “good dose response”. Also, in series [5] (1.0% vs 0.5%), the “SMF thickness and volume by MRI, compared with 0.5%” value was “better dose response and greater reduction”; the “relative effectiveness by CR-SMFRS” value is reported as “more effective than 0.5%”; the “relative effectiveness by PR-SMFRS” value was “more effective than 0.5%”. For the same compound, in series [5] (1.0%, week 16 and week 32), the “1-grade reduction, CR-SMFRS” value is “Statistically significance was obtained” and the “1-grade reduction, PR-SMFRS” value was “Statistically significance was obtained”. For the same compound, in series [5] (1.0%, week 32), the “2-grade reduction, PR-SMFRS” value was “Statistically significance was obtained”. In addition, the “CR-SMFRS with BMI as a standard (FIG. 18)” value in series [5] (ATX-101 treatments) is “significant submental fat reduction”. Further, the CR-SMFRS/body weight ratio entry in series [5] (FIGS. 20 and 21) is “decreased significantly”. Moreover, in series [6] (0.5% vs 2.0% and 4.0%), the “safety profile across studies” value is “better safety profile than the higher concentrations”. For the same compound, the “safety profile across studies” value in series [6] (1.0% vs 2.0% and 4.0%) was “better safety profile than the higher concentrations”. Further, the safety and tolerability result in series [6] (all concentrations in clinical studies) was “safe and well tolerated”. In addition, the adverse events result in series [6] (clinical studies, not systemic) is “local, transient injection site reactions of mild to moderate intensity”. In addition, in series [7] (0.5% w/v), the “time points with statistically significant change from baseline in SMF rating scale score compared to placebo” value was “weeks 8, 12, 16 and 24”; the “change from baseline at week 16 compared to placebo in SMF rating scale score: significance (ANCOVA)” value (shortened to “change from baseline … significance (ANCOVA)”) is on record as “statistically significant”. The “time points with statistically significant improvement in SMF rating scale score compared to placebo” value in series [7] (1.0% w/v) was “weeks 12, 16 and 24”. In addition, in series [7] (1% w/v), the “change from baseline … significance (ANCOVA)” value is “statistically significant”. In series [7] (2.0% vs 1.0% or 0.5%), the “relative effectiveness by visual assessment methods” value is recorded as “less effective than ATX-101 1.0% or 0.5%”. In series [7] (2% w/v), the “time points with statistically significant improvement in SMF rating scale score compared to placebo” value was “only at week 24” and the “change from baseline … significance (ANCOVA)” value is reported as “not”.
Regarding `C[C@H](CCC(=O)O)[C@H]1CC[C@H]2[C@@H]3CC[C@@H]4C[C@H](O)CC[C@]4(C)[C@H]3C[C@H](O)[C@]12C` [deoxycholic acid], the “fat pad necrosis relative to 0.5%” value in series [2] (1.0% vs 0.5%, single 2.5 mL injection) is given as “approximately 2.5 times”. The histological changes result in series [8] (2.0%) was “marked necrosis, resulting in lipid lake formation and vessel damage”; in series [8] (4.0%), “marked necrosis, resulting in lipid lake formation and vessel damage”.
